Experimental data published in patent US8293781B2, “Indole derivatives having cPLA2 inhibiting activity and applications and production methods of the same” (Daiichi Sankyo Company, Limited, priority 2007, dated 2012).
Where a name gives a salt, the structure may show the parent alone.

Biological target: T1, cPLA2 crudely purified from the cytoplasm fraction of U937 (Homo sapiens, UniProt P47712)
T1 construct: cPLA2 crudely purified from the cytoplasm fraction of U937; endogenous in cells; host or cells: U937 cells (cytoplasm fraction, crude purification)
T1 sequence (P47712 1-749): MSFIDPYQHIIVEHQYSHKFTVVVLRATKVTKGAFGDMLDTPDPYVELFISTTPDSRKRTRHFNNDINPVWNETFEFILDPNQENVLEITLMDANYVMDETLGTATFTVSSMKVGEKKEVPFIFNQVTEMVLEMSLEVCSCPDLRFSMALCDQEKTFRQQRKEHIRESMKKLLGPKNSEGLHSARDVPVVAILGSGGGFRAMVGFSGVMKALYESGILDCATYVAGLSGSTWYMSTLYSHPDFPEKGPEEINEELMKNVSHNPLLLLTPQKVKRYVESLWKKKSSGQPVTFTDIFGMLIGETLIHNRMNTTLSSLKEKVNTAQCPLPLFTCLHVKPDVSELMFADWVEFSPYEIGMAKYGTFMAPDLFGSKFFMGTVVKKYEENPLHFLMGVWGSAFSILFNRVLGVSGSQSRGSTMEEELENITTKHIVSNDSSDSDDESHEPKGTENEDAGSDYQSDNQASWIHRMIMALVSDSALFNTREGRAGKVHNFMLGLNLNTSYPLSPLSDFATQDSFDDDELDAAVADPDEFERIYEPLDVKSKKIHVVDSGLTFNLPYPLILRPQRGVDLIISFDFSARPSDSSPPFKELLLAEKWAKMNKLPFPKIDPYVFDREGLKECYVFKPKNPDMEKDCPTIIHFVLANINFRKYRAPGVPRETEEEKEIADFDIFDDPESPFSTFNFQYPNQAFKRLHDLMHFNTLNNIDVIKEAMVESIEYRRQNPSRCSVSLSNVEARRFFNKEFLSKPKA
Test: Measurement of cPLA2 inhibitory activity (release of [14C]-arachidonic acid from phosphatidyl choline liposome)
Type: biochemical
Settings: not given
In short: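 The read-out is radioactivity from extracted [14C]-arachidonic acid, freed over 60 min at 37° C from liposomes of 14C-arachidonyl phosphatidylcholine (10 μM PC in the added solution). Buffer was 50 mM HEPES pH 7.5 with Ca2+, DTT, NaCl and BSA. IC50 was derived from inhibition relative to enzyme control minus no-enzyme control.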

Compound | IC50 [nM]
O=C(O)/C=C/c1ccc2c(c1)c(C(=O)Cc1ccccc1)cn2-c1ccccc1 [Example 11, (2E)-3-[1-phenyl-3-(phenylacetyl)-1H-indol-5-yl]-2-propenoic acid] | 1910
O=C(O)/C=C/c1ccc2c(c1)c(C(=O)Cc1ccc(Cl)cc1)cn2-c1ccccc1 [Example 56, (2E)-3-{3-[(4-chlorophenyl)acetyl]-1-phenyl-1H-indol-5-yl}-2-propenoic acid] | 6400
O=C(O)CCc1ccc2c(c1)c(C(=O)c1ccccc1)cn2-c1ccccc1 [Example 4, 3-(3-benzoyl-1-phenyl-1H-indol-5-yl)propanoic acid] | 146
COc1ccc(CC(=O)c2cn(-c3ccccc3)c3ccc(/C=C/C(=O)O)cc23)cc1 [Example 64, (2E)-3-{3-[(4-methoxyphenyl)acetyl]-1-phenyl-1H-indol-5-yl}-2-propenoic acid] | 19600
O=C(O)CCc1ccc2c(c1)c(C(=O)Cc1ccc(F)cc1)cn2-c1ccccc1 [Example 61, 3-{3-[(4-fluorophenyl)acetyl]-1-phenyl-1H-indol-5-yl}propanoic acid] | 653

Same assay, conditions: cPLA2 from U937 cytoplasm fraction, [14C]arachidonyl-phosphatidyl choline liposome, 37° C., 60 minutes; read-out: cPLA2 inhibitory activity, 50% inhibiting concentration IC50

Compound | IC50 [nM]
O=C(CCc1ccc2c(c1)c(CCc1ccccc1)cn2-c1ccc(OC(F)F)cc1)NO [Example 286, 3-{1-[4-(difluoromethoxy)phenyl]-3-(2-phenylethyl)-1H-indol-5-yl}-N-hydroxypropanamide] | > 3000
CCC(C(=O)c1cn(-c2ccccc2)c2ccc(CCC(=O)O)cc12)c1ccccc1 (stereo not drawn) [Example 36, 3-[1-phenyl-3-(2-phenylbutanoyl)-1H-indol-5-yl]propanoic acid 2-amino-2-(hydroxymethyl)propane-1,3-diol salt (1:1)] | 330
O=C(O)CCc1ccc2c(c1)c(CCc1ccccn1)cn2-c1ccc(COC(F)F)cc1 [Example 302, 3-[1-{4-[(difluoromethoxy)methyl]phenyl}-3-(2-pyridin-2-ylethyl)-1H-indol-5-yl]propanoic acid hydrochloride] | 764
COCCOc1ccc(-n2cc(CCc3ccccc3)c3cc(CCC(=O)O)ccc32)cc1 [Example 203, 3-{1-[4-(2-methoxyethoxy)phenyl]-3-(2-phenylethyl)-1H-indol-5-yl}propanoic acid] | 10
O=C(O)CCc1ccc2c(c1)c(CCc1ccccn1)cn2-c1ccc(OCCO)cc1 [Example 279, 3-{1-[4-(2-hydroxyethoxy)phenyl]-3-(2-pyridin-2-ylethyl)-1H-indol-5-yl}propanoic acid hydrochloride] | 245
COc1cccc(CCc2cn(-c3ccccc3)c3ccc(CCC(=O)O)cc23)c1 [Example 68, 3-{3-[2-(3-methoxyphenyl)ethyl]-1-phenyl-1H-indol-5-yl}propanoic acid 2-amino-2-(hydroxymethyl)propane-1,3-diol salt (1:1)] | 1000
O=C(O)CCc1ccc2c(c1)c(CCc1ccccn1)cn2-c1cc(F)c(O)c(F)c1 [Example 298, 3-[1-(3,5-difluoro-4-hydroxyphenyl)-3-(2-pyridin-2-ylethyl)-1H-indol-5-yl]propanoic acid hydrochloride] | 923
O=C(CCc1ccc2c(c1)c(CCc1ccccc1)cn2-c1ccc(OC(F)F)cc1)C(F)(F)F [Example 329, 4-{1-[4-(difluoromethoxy)phenyl]-3-(2-phenylethyl)-1H-indol-5-yl}-1,1,1-trifluorobutan-2-one] | 318
O=C(O)CCc1ccc2c(c1)c(CCc1ccccn1)cn2-c1cccc(OCc2ccccc2)c1 [Example 281, 3-{1-[3-(benzyloxy)phenyl]-3-(2-pyridin-2-ylethyl)-1H-indol-5-yl}propanoic acid hydrochloride] | 278
O=C(O)CCc1ccc2c(c1)c(Cc1ccc3ccccc3c1)cn2-c1ccccc1 [Example 54, 3-[3-(2-naphthylmethyl)-1-phenyl-1H-indol-5-yl]propanoic acid] | 6120
CC(=O)Nc1ccccc1-n1cc(CCc2ccccc2)c2cc(CCC(=O)O)ccc21 [Example 153, 3-{1-[2-(acetylamino)phenyl]-3-(2-phenylethyl)-1H-indol-5-yl}propanoic acid] | 7960
COc1ccc(-n2cc(CCc3ccccc3)c3cc(CCC(=O)O)ccc32)cn1 [Example 130, 3-[1-(6-methoxy-3-pyridinyl)-3-(2-phenylethyl)-1H-indol-5-yl]propanoic acid] | 113
Nc1ccc(-n2cc(CCc3ccccc3)c3cc(CCC(=O)O)ccc32)cc1 [Example 196, 3-[1-(4-aminophenyl)-3-(2-phenylethyl)-1H-indol-5-yl]propanoic acid] | 66
O=C(O)CCc1ccc2c(c1)c(CCc1ccccc1)cn2-c1cccc(S(=O)(=O)N2CCOCC2)c1 [Example 324, 3-{1-[3-(morpholin-4-ylsulfonyl)phenyl]-3-(2-phenylethyl)-1H-indol-5-yl}propanoic acid] | 1630
CSc1ccc(-n2cc(CCc3ccccc3)c3cc(CCC(=O)O)ccc32)cc1 [Example 334, 3-[1-(4-methylthiophenyl)-3-(2-phenylethyl)-1H-indol-5-yl]propanoic acid] | 11
CCCOc1cccc(-n2cc(CCc3ccccc3)c3cc(CCC(=O)O)ccc32)c1 [Example 161, 3-[3-(2-phenylethyl)-1-(3-propoxyphenyl)-1H-indol-5-yl]propanoic acid] | 813
O=C(O)CCc1ccc2c(c1)c(CCc1ccccc1)cn2-c1ccc(OCc2ccccc2)nc1 [Example 199, 3-{1-[6-(benzyloxy)pyridin-3-yl]-3-(2-phenylethyl)-1H-indol-5-yl}propanoic acid] | 986
O=C(O)CCc1ccc2c(c1)c(CCc1ccccc1)cn2-c1ccc(OCC2CCCCO2)cc1 (stereo not drawn) [Example 243, 3-{3-(2-phenylethyl)-1-[4-(tetrahydro-2H-pyran-2-ylmethoxy)phenyl]-1H-indol-5-yl}propanoic acid 2-amino-2-(hydroxymethyl)propane-1,3-diol salt (1:1)] | 4
CCCOc1ccc(-n2cc(CCc3ccccc3)c3cc(CCC(=O)O)ccc32)cc1 [Example 119, 3-[3-(2-phenylethyl)-1-(4-propoxyphenyl)-1H-indol-5-yl]propanoic acid] | 7
O=C(O)CCc1ccc2c(c1)c(CCc1ccccc1)cn2-c1cccc(C(=O)O)c1 [Example 177, 3-[5-(2-carboxyethyl)-3-(2-phenylethyl)-1H-indol-1-yl]benzoic acid] | 2520
O=C(CCc1ccc2c(c1)c(CCc1ccccc1)cn2-c1ccc(OC(F)F)cc1)NS(=O)(=O)c1ccccc1 [Example 332, 3-{1-[4-(difluoromethoxy)phenyl]-3-(2-phenylethyl)-1H-indol-5-yl}-N-(phenylsulfonyl)propanamide] | > 3000
O=C(O)CCc1ccc2c(c1)c(CC1(c3ccccc3)CC1)cn2-c1ccccc1 [Example 41, 3-{1-phenyl-3-[(1-phenylcyclopropyl)methyl]-1H-indol-5-yl}propanoic acid 2-amino-2-(hydroxymethyl)propane-1,3-diol salt (1:1)] | 634
O=C(O)CCc1ccc2c(c1)c(CCc1ccccc1)cn2-c1ccc(CO)cc1 [Example 219, 3-{1-[4-(hydroxymethyl)phenyl]-3-(2-phenylethyl)-1H-indol-5-yl}propanoic acid] | 147
CN(C)c1ccc(-n2cc(CCc3ccccc3)c3cc(CCC(=O)O)ccc32)cc1 [Example 86, 3-{1-[4-(dimethylamino)phenyl]-3-(2-phenylethyl)-1H-indol-5-yl}propanoic acid 2-amino-2-(hydroxymethyl)propane-1,3-diol salt (1:1)] | 24
O=C(O)CCc1ccc2c(c1)c(CCc1ccccn1)cn2-c1cc(F)c(OCc2ccccc2)c(F)c1 [Example 297, 3-{1-[4-(benzyloxy)-3,5-difluorophenyl]-3-(2-pyridin-2-ylethyl)-1H-indol-5-yl}propanoic acid] | 442
O=C(O)CCc1ccc2c(c1)c(CCc1ccccn1)cn2-c1cccc(O)c1 [Example 282, 3-[1-(3-hydroxyphenyl)-3-(2-pyridin-2-ylethyl)-1H-indol-5-yl]propanoic acid hydrochloride] | 582
COc1ccc(CCc2cn(-c3ccccc3)c3ccc(CCC(=O)O)cc23)cc1 [Example 66, 3-{3-[2-(4-methoxyphenyl)ethyl]-1-phenyl-1H-indol-5-yl}propanoic acid 2-amino-2-(hydroxymethyl)propane-1,3-diol salt (1:1)] | 718
Cc1cccc(-n2cc(CCc3ccccc3)c3cc(CCC(=O)O)ccc32)c1 [Example 97, 3-[1-(3-methylphenyl)-3-(2-phenylethyl)-1H-indol-5-yl]propanoic acid 2-amino-2-(hydroxymethyl)propane-1,3-diol salt (1:1)] | 99
